≈ marks a conversion by molar mass, not a printed value.
Legend:
S. aureus ATCC 43300 = assay: MIC/MBC broth microdilution, S. aureus; type: cell-based, Staphylococcus aureus; details: S. aureus
S. pyogenes ATCC 19615 = assay: MIC/MBC broth microdilution, S. pyogenes; type: cell-based, Streptococcus pyogenes; details: S. pyogenes
Outline: (§1)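 Standard NCCLS broth microdilution in BHI broth, inoculum approx. 10^5 CFU/mL, serially diluted peptidomimetics, 18 h at 37 °C. MIC was the lowest concentration with no obvious growth (≥90% inhibition versus untreated); MBC was the lowest giving ≤3 colonies on subculture (≥99.9% kill).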

S. cohnii c.i. = assay: MIC/MBC broth microdilution, S. cohnii; type: cell-based, Staphylococcus cohnii
Outline: as §1

E. faecalis c.i. = assay: MIC/MBC broth microdilution, E. faecalis; type: cell-based, Enterococcus faecalis
Outline: as §1

S. schleiferi c.i. = assay: MIC/MBC broth microdilution, S. schleiferi; type: cell-based, Staphylococcus schleiferi
Outline: as §1

S. agalactiae ATCC 27956 = assay: MIC/MBC broth microdilution, S. agalactiae; type: cell-based, Streptococcus agalactiae; details: S. agalactiae
Outline: as §1

S. mutans c.i. = assay: MIC/MBC broth microdilution, S. mutans; type: cell-based, Streptococcus mutans
Outline: as §1

E. coli ATCC 25922 = assay: MIC/MBC broth microdilution, E. coli; type: cell-based, Escherichia coli
Outline: as §1

P. vulgaris ATCC 6896 = assay: MIC/MBC broth microdilution, P. vulgaris; type: cell-based, Proteus vulgaris
Outline: as §1

[1] = test system: K. pneumoniae ATCC 700603; assay: MIC/MBC broth microdilution, K. pneumoniae; type: cell-based
Outline: as §1

P. aeruginosa ATCC 10145 = assay: MIC/MBC broth microdilution, P. aeruginosa; type: cell-based
Outline: as §1

[2] = Hydrophobicity by reverse-phase chromatography; type: physicochemical; details: acetonitrile content in the mobile phase at the retention time
Excerpt: Reverse-phase chromatography was employed to assess the hydrophobicity characteristics of the peptidomimetics. Hydrophobicity was quantified by determining the acetonitrile content in the mobile phase at the retention time of a peptidyl derivative (Table S2). The least hydrophobic compound (40% acetonitrile) was A-198, which aligns with the calculations of hydrophobicity by SwissADME and pkCSM (Table ). Next in the hydrophobicity sequence were A-197, A-220, A-219, A-174, and A-221, eluting with 42.5-43.9% of acetonitrile. Then there were followed by […], and A-179, with the acetonitrile percentage of 44.8-49.8. The compounds A-176, A-20, A-152, A-134, and A-210 needed over 50% of acetonitrile to be eluted from the column.

[3] = test system: immortalized human keratinocytes (HaCaT); assay: LDH cytotoxicity test, keratinocytes; type: cell-based; details: 48 h, 50-150 μg/mL
Outline: (§2)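 HaCaT keratinocytes and 46BR.1N fibroblasts, 5000 cells per well, grown 24 h, then exposed to peptidomimetics at 50, 100 and 150 μg/mL in serum-free medium for 48 h. LDH release in supernatant read at 450 nm, normalized to untreated (0%) and 1% Triton X-100 (maximal) controls.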

fibroblasts (46BR.1N) = assay: LDH cytotoxicity test, fibroblasts; type: cell-based; details: 48 h, 50-150 μg/mL
Outline: as §2

[4] = test system: immortalized human HaCaT keratinocytes; assay: XTT cell proliferation assay, keratinocytes; type: cell-based; details: XTT, 48 and 72 h, 0.01–150 μg/mL
Outline: (§3)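 Cells at 37 °C, 5% CO2 received peptidomimetics in serum-free HG-DMEM for 48 or 72 h; for 72 h, half the medium was renewed and peptide re-added at 48 h. XTT reagent was then incubated 4 h and absorbance read at 490 nm; Mann–Whitney U test, p ≤ 0.05.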

[5] = test system: human dermal fibroblast cell line (46BR.1N); assay: XTT cell proliferation assay, fibroblasts; type: cell-based; details: XTT, 48 and 72 h, 0.01–150 μg/mL
Outline: as §3

Q: Which results are given for `CC(C)[C@@H](CNC(=O)/C=C/c1ccccc1)NC(=O)[C@H](Cc1c[nH]cn1)NC(=O)[C@H](CCCCN)NC(=O)OCc1ccccc1` [Compound A-174]?
A: MBC (S. aureus ATCC 43300; H2O): 512 µg/mL (≈ 810 µM); MIC (S. aureus ATCC 43300; H2O): 256 µg/mL (≈ 405 µM); MBC (S. aureus ATCC 43300; water additive DMSO): 512 µg/mL (≈ 810 µM); MIC (S. aureus ATCC 43300; water additive DMSO): 512 µg/mL (≈ 810 µM); MBC (S. aureus ATCC 43300; water additive EtOH): 512 µg/mL (≈ 810 µM); MIC (S. aureus ATCC 43300; water additive EtOH): 512 µg/mL (≈ 810 µM); MBC (S. pyogenes ATCC 19615; H2O): 256 µg/mL (≈ 405 µM); MBC (S. pyogenes ATCC 19615; water additive DMSO): 256 µg/mL (≈ 405 µM); MBC (S. pyogenes ATCC 19615; water additive EtOH): 256 µg/mL (≈ 405 µM); MBC (S. cohnii c.i.; H2O): 256 µg/mL (≈ 405 µM); MIC (S. cohnii c.i.; H2O): 256 µg/mL (≈ 405 µM); MBC (S. cohnii c.i.; water additive DMSO): 256 µg/mL (≈ 405 µM); MBC (S. cohnii c.i.; water additive EtOH): 256 µg/mL (≈ 405 µM); MIC (E. faecalis c.i.; H2O): > 512 µg/mL; MIC (E. faecalis c.i.; water additive DMSO): > 512 µg/mL; MIC (E. faecalis c.i.; water additive EtOH): > 512 µg/mL; MIC (S. schleiferi c.i.; H2O): > 512 µg/mL; MIC (S. schleiferi c.i.; water additive DMSO): > 512 µg/mL; MBC (S. schleiferi c.i.; water additive EtOH): 512 µg/mL (≈ 810 µM); MIC (S. schleiferi c.i.; water additive EtOH): 512 µg/mL (≈ 810 µM); MBC (S. agalactiae ATCC 27956; H2O): 512 µg/mL (≈ 810 µM); MIC (S. agalactiae ATCC 27956; H2O): 512 µg/mL (≈ 810 µM); MBC (S. agalactiae ATCC 27956; water additive DMSO): 512 µg/mL (≈ 810 µM); MIC (S. agalactiae ATCC 27956; water additive DMSO): 512 µg/mL (≈ 810 µM); MBC (S. agalactiae ATCC 27956; water additive EtOH): 512 µg/mL (≈ 810 µM); MIC (S. agalactiae ATCC 27956; water additive EtOH): 256 µg/mL (≈ 405 µM); MIC (S. mutans c.i.; H2O): > 512 µg/mL; MIC (S. mutans c.i.; water additive DMSO): > 512 µg/mL; MIC (S. mutans c.i.; water additive EtOH): > 512 µg/mL; MIC (E. coli ATCC 25922; H2O): > 512 µg/mL; MIC (E. coli ATCC 25922; water additive DMSO): > 512 µg/mL; MIC (E. coli ATCC 25922; water additive EtOH): > 512 µg/mL; MIC (P. vulgaris ATCC 6896; H2O): > 512 µg/mL; MIC (P. vulgaris ATCC 6896; water additive DMSO): > 512 µg/mL; MBC (P. vulgaris ATCC 6896; water additive EtOH): > 512 µg/mL; MIC (P. vulgaris ATCC 6896; water additive EtOH): 512 µg/mL (≈ 810 µM); MIC ([1]; H2O): > 512 µg/mL; MIC ([1]; water additive DMSO): > 512 µg/mL; MIC ([1]; water additive EtOH): > 512 µg/mL; MIC (P. aeruginosa ATCC 10145; H2O): > 512 µg/mL; MIC (P. aeruginosa ATCC 10145; water additive DMSO): > 512 µg/mL; MBC (P. aeruginosa ATCC 10145; water additive EtOH): > 512 µg/mL; MIC (P. aeruginosa ATCC 10145; water additive EtOH): 512 µg/mL (≈ 810 µM); % AcCN (acetonitrile required for elution from the column) [2]: 42.9%; cytotoxicity (LDH), in words [3]: no cytotoxicity; cytotoxicity (LDH), in words (fibroblasts (46BR.1N)): no cytotoxicity; effect on proliferation, in words [4]: did not exert any negative impact; effect on proliferation, in words [5]: did not exert any negative impact

— PMC12332667, “Role of Structural Modifications in Peptidomimetic Compounds as Potential Antimicrobial Agents against Staphylococcus aureus and Streptococcus pyogenes: Balancing Bioavailability, Safety, and Antimicrobial Activity” (ACS Omega, 2025)
